The assay deals with spontaneously hypertensive rat (SHR). As to the kind of experiment: In vivo model study: telemetry cardiovascular assessment in SHR rats. The settings on record: male SHR rats, intraperitoneal administration, radiotelemetry, preliminary evaluation. The text has this: The objective of this study is to define the magnitude, time course and dose/concentration response relationship of compound 13 antihypertensive effects when administered intraperitoneally (IP) to male SHR rats maintained on standard and low salt diets. In Vivo Phase I: Three male SHR rats, 7-10 weeks of age weighing 150-300 g, will be instrumented with radiotelemetry transmitters. Following an approximate 2-week recovery period, animals will receive a single intraperitoneal dose of test article. Cardiovascular data will be collected for approximately 24 hours following dosing. Cardiovascular data is collected from non-restrained animals implanted with radiotelemetry devices. 1. SHR rats, 7-10 weeks of age weighing 150-300 g, are implanted with radiotelemetry devices. Transmitters are placed subcutaneously in the ventral abdominal region and blood pressure is monitored from the femoral artery. Animals will be allowed to recover at least 10 days prior to data collection. 5. At least 1 hour of baseline is collected from undisturbed animals prior to each dosing. Following test article administration, approximately 24 hours of data is collected from undisturbed animals to assess hemodynamic effects.

Molecules are shown by their SMILES.

For the compound `CCc1nc(N)nc(N)c1-c1ccc2c(c1)N(CCNC(=O)OC)C(=O)[C@](C)(c1cc(F)cc(F)c1)O2` [Compound 13], the “blood pressure reduction in SHR (antihypertensive effect)” value is “blood pressure reduction”.

Values taken from patent US20090215763A1, “SUBSTITUTED BENZOXAZINONES” (P&H Therapeutics, Inc., priority 2008, published 2009).
